Laboratory results from the supplement of paper PMC10307832.

Key:
Assay in all cases: relative viability (nuclei count vs DMSO), 5 days (fraction); higher = more cells survive
[1] = compound: O=C(NC1CCNCC1)c1n[nH]cc1NC(=O)c1c(Cl)cccc1Cl [AT-7519] + CS(=O)(=O)N1CCN(Cc2cc3nc(-c4cccc5[nH]ncc45)nc(N4CCOCC4)c3s2)CC1 [Pictilisib] (partner 1 µM)
Procedure, shortened: (§1)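 Each reported value is a median over duplicate plates. It expresses relative viability: treated-well nuclei count divided by vehicle-well nuclei count. Lung cancer cell lines in 1536-well plates were dosed by pin tool a day after seeding, alone with one drug or with a fixed anchor-drug dose plus five library-drug doses (not always all listed) in √10 steps, and nuclei were counted after 5 days.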

[2] = compound: O=C(NC1CCNCC1)c1n[nH]cc1NC(=O)c1c(Cl)cccc1Cl [AT-7519] + COc1cc2c(Oc3ccc(NC(=O)C4(C(=O)Nc5ccc(F)cc5)CC4)cc3F)ccnc2cc1OCCCN1CCOCC1 [Foretinib] (partner 0.25 µM)
Procedure, shortened: as §1

[3] = compound: O=C(NC1CCNCC1)c1n[nH]cc1NC(=O)c1c(Cl)cccc1Cl [AT-7519]
Procedure, shortened: (§2)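 After an overnight hold at 37 °C, lung cancer cell lines in 1536-well plates were pinned with five library-drug doses (not always all listed), each √10 from the next, on vehicle-anchored plates. The cells stayed 5 days without fresh medium, then a one-step fix, permeabilisation and Hoechst stain preceded 4× imaging and MetaXpress nuclear counts. A plate passed only with control CV under 25% and at least one doubling. Viability is the median, over plates, of treated-well nuclei relative to vehicle-well nuclei.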

[4] = compound: C1=CC2=C(C=C(C(=C2N=C1)O)N=NC3=CC4=C(C=C3)C=C(C=C4)S(=O)(=O)O)S(=O)(=O)O
Procedure, shortened: as §2

## UMC-11
[1]; first compound 0.01 µM
  relative viability: 0.787
[1]; first compound 0.03162 µM
  relative viability: 0.814
[1]; first compound 0.3162 µM
  relative viability: 0.417
[1]; first compound 1 µM
  relative viability: 0.249
[2]; first compound 0.01 µM
  relative viability: 1.1
[2]; first compound 0.03162 µM
  relative viability: 0.934
[2]; first compound 0.3162 µM
  relative viability: 0.838
[2]; first compound 1 µM
  relative viability: 0.457
[3]; 0.01 µM
  relative viability: 0.951
[3]; 0.03162 µM
  relative viability: 0.934
[3]; 0.3162 µM
  relative viability: 0.765
[3]; 1 µM
  relative viability: 0.499
[4]; 0.08 µM
  relative viability: 1.11
[4]; 0.253 µM
  relative viability: 0.942
[4]; 0.8 µM
  relative viability: 0.925
[4]; 2.53 µM
  relative viability: 1.02
[4]; 8 µM
  relative viability: 0.92
